From patent US20250230193A1, “CYCLIC COMPOUND HAVING SELECTIVE KRAS INHIBITORY EFFECT ON HRAS AND NRAS” (CHUGAI SEIYAKU KABUSHIKI KAISHA, priority 2022, published 2025)
Read-outs that look alike come from different tables or passages of the source.

How the values were obtained:
[1] = test system: human lung cancer strain NCI-H441
[2] = target: GDP-bound KRAS wild-type protein (Homo sapiens, UniProt P01116); assay: Binding to KRAS by surface plasmon resonance (SPR), Single Cycle Kinetics; details: GDP-bound KRAS wild-type protein
[3] = target: GDP-bound NRAS wild-type protein (Homo sapiens, UniProt P01111); assay: Binding to NRAS by surface plasmon resonance (SPR), Single Cycle Kinetics; details: SPR; for NRAS/KRAS (ratio of KD value for GDP-bound NRAS wild-type protein to KD value for KRAS): KD ratio class
[4] = target: GDP-bound HRAS wild-type protein (Homo sapiens, UniProt P01112); assay: Binding to HRAS by surface plasmon resonance (SPR), Single Cycle Kinetics; details: SPR; for HRAS/KRAS (ratio of KD value for GDP-bound HRAS wild-type protein to KD value for KRAS): KD ratio class
[5] = read-out: NCI-H441 IC50, NCI-H441 cells, 4 days, CellTiter-Glo
[6] = SPR Single Cycle Kinetics, 1:1 binding model

Chain of GDP-bound HRAS wild-type protein (P01112 whole entry): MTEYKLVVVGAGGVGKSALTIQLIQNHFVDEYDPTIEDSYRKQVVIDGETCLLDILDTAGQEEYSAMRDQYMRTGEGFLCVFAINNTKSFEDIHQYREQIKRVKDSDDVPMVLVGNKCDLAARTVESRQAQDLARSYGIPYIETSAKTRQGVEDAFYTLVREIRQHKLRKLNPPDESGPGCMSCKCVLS
Chain of GDP-bound NRAS wild-type protein (P01111 whole entry): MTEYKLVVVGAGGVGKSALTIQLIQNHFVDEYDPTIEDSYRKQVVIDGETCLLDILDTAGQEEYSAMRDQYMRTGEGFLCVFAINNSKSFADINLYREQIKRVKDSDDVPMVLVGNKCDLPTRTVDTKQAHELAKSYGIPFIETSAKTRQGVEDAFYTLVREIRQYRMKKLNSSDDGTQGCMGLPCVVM

SMILES	IC50 [1, 5] [nM]	Kd ([2]; SPR, Single Cycle Kinetics) [nM]	NRAS/KRAS (ratio of KD value for GDP-bound NRAS wild-type protein to KD value for KRAS) [3]	HRAS/KRAS (ratio of KD value for GDP-bound HRAS wild-type protein to KD value for KRAS) [4]	IC50 [1] [nM]	Kd [2, 6] [nM]	NRAS/KRAS (ratio of KD value for NRAS to KD value for KRAS) ([3]; KD ratio, GDP-bound NRAS wild-type vs GDP-bound KRAS wild-type)	HRAS/KRAS (ratio of KD value for HRAS to KD value for KRAS) ([4]; KD ratio, GDP-bound HRAS wild-type vs GDP-bound KRAS wild-type)	NRAS/KRAS (ratio of KD value with respect to GDP-bound NRAS wild-type protein to KD value with respect to KRAS) ([3]; KD ratio NRAS/KRAS, GDP-bound wild-type proteins)	HRAS/KRAS (ratio of KD value with respect to GDP-bound HRAS wild-type protein to KD value with respect to KRAS) ([4]; KD ratio HRAS/KRAS, GDP-bound wild-type proteins)
CCO[C@@H]1C[C@H]2C(=O)NC3(CC(C)(C)C3)C(=O)N(C)[C@@H](C(CC)CC)C(=O)N(C)C(C(C)C)CC(=O)N(C)[C@@H](CC3CC3)C(=O)N[C@@H]([C@@H](C)CC)C(=O)N(C)CC(=O)N(C)[C@H]3C/C=C\CCN(C3=O)[C@@H](Cc3ccc(C(F)(F)F)cc3)C(=O)N(C)CC(=O)N[C@@H](CCc3cc(F)c(C(F)(F)F)c(F)c3)C(=O)N2C1 (some centres unmarked) [PP1593]	144	4.3	A (a compound having 10 or more and less than 20 is denoted as A)	A (a compound having 10 or more and less than 20 is denoted as A)	–	–	–	–	–	–
CCO[C@@H]1C[C@H]2C(=O)NC3(CCC3)C(=O)N(C)[C@@H](C(CC)CC)C(=O)N(C)C(C(C)C)CC(=O)N(C)[C@@H](CC3CC3)C(=O)N[C@@H]([C@@H](C)CC)C(=O)N(C)CC(=O)N(C)[C@H]3C/C=C\CCN(C3=O)[C@@H](Cc3ccc(C(F)(F)F)cc3)C(=O)N(C)CC(=O)N[C@@H](CCc3cc(F)c(C(F)(F)F)c(F)c3)C(=O)N2C1 (some centres unmarked) [PP1595]	64.6	2.3	A (a compound having 10 or more and less than 20 is denoted as A)	A (a compound having 10 or more and less than 20 is denoted as A)	–	–	–	–	–	–
CCO[C@@H]1C[C@H]2C(=O)NC3(CC(F)(F)C3)C(=O)N(C)[C@@H](C3CCCC3)C(=O)N(C)C(C(C)C)CC(=O)N(C)[C@@H](CC3CC3)C(=O)N[C@@H]([C@@H](C)CC)C(=O)N(C)CC(=O)N(C)[C@H]3C/C=C\CCN(C3=O)[C@@H](Cc3ccc(C(F)(F)F)cc3)C(=O)N(C)CC(=O)N[C@@H](CCc3cc(F)c(C(F)(F)F)c(F)c3)C(=O)N2C1 (some centres unmarked) [PP1598]	36.6	0.76	A (a compound having 10 or more and less than 20 is denoted as A)	A (a compound having 10 or more and less than 20 is denoted as A)	–	–	–	–	–	–
CCO[C@@H]1C[C@H]2C(=O)NC3(CCC3)C(=O)N(C)[C@@H](C3CCCC3)C(=O)N(C)[C@H](C(=O)N(C)CC)CC(=O)N(C)[C@H]3CCCC/C=C/c4ccc(cc4)C[C@@H](C(=O)N(C)CC(=O)N[C@@H](CCc4ccc(C(F)(F)F)c(OC)c4)C(=O)N2C1)N1CC/C=C\C[C@@H](C1=O)N(C)C(=O)CN(C)C(=O)[C@H]([C@@H](C)CC)NC3=O [PP1828]	–	–	–	–	1.9	0.039	A (a compound having 10 or more and less than 20 is denoted as A)	B (a compound having 3 or more and less than 10 is denoted as B)	–	–
CC[C@H](C)[C@@H]1NC(=O)[C@@H](CC(C)C)N(C)C(=O)CSC[C@H](C(=O)N(C)C)N(C)C(=O)[C@@H](C2CCCC2)N(C)C(=O)C2(CCCC2)NC(=O)[C@@H]2CCCN2C(=O)[C@H](CCc2cc(F)c(C(F)(F)F)c(F)c2)NC(=O)CN(C)C(=O)[C@H](Cc2ccc(C(F)(F)F)cc2)N2CC=CC[C@@H](C2=O)N(C)C(=O)CN(C)C1=O [PP3108]	–	–	–	–	9250	870	–	–	C (A compound having a KD ratio of 0.1 or more and less than 3 is denoted as C)	B (a compound having 3 or more and less than 10 is denoted as B)
